Tested on: 299254-011-R-J1-PDC complex spheroids viability
Assay: Anticancer human tumor 299254-011-R-J1-PDC patient-derived melanoma cell line growth inhibition [GQUAD]
Details: for IC50: curve of first compound; for viability, T/C: stronger effect = lower value
Source text: DNA G-quadruplex Stabilizer Agents in Combinations in Complex Spheroids
A high-throughput screen of multi-cell type tumor spheroids was designed to identify active combinations of DNA G-quadruplex stabilizer agents and targeted small molecules. Complex spheroids include a stromal component modeled by human endothelial cells (HUVEC) and fibroblasts modeled by human mesenchymal stem cells (MSCs). The concentration ranges selected for each drug and investigational agent were based upon clinically achievable concentrations if the clinical Cmax of the agent was known.
Compounds. The drugs and investigational agents: pidnarulex (CX-5461; NSC782164), APTO-253 (NSC789042), BRACO-19 (NSC847499), peposertib (NSC802822), ceralasertib (NSC780249), elimusertib (NSC800525), camonsertib (NSC841442), AZD-1390 (NSC803789), olaparib (NSC753686), talazoparib (NSC767125), ART-558 (NSC835418), sotorasib (NSC818433), MRTX-1133 (NSC836407), SN-38 (NSC673596), topotecan (NSC609699), etoposide (NSC141540), doxorubicin (NSC123127), gemcitabine (NSC613327), 5-fluorouracil (NSC19893), paclitaxel (NSC125973), vemurafenib (NSC761431), panobinostat (NSC761190), R-306465 (JNJ-16241199; NSC773264), adavosertib (NSC754352), TP-3654 (NSC805149), carboplatin (NSC241240), KSQ-4279 (NSC840948), and staurosporine (NSC755774) were obtained from the National Cancer Institute (NCI) Developmental Therapeutics Program Chemical Repository (34). The FDA-approved anticancer drug set is available from the NCI Developmental Therapeutics Program. […] The stock solutions were prepared in dimethyl sulfoxide (DMSO, Sigma-Aldrich, St. Louis, MO, cat. D2650) at 800-fold the tested concentration and stored at -70 degrees C prior to their use. All drugs and investigational agents were tested over a range starting from a high concentration at or near the clinical Cmax and decreasing in half-log increments. If the clinical Cmax for an agent had not been determined, the highest concentration tested was 10 microM.
2.3 Cell Culture. All cells were maintained in an incubator at 37 degrees C and 5% CO2 with 95% humidity. The PDC lines were cultured according to standard operating procedures established by the NCI PDMR. All PDCs were thawed and cultured in Matrigel-coated flasks prepared with a working solution of 1X Ham's F-12 nutrient mix, without supplementation (Invitrogen, cat. 11765054), 100 U/mL penicillin-streptomycin (Invitrogen, cat. 15140122), and 2.5% Matrigel (Corning Inc., cat. 354248) for the first three passages. The 857933-349-R-J2-PDC line was cultured in 6C/Colon 1B media, which includes advanced DMEM/F-12 (Thermo Fisher Scientific, cat. 12634028), 10 mM HEPES (Thermo Fisher Scientific, cat. 15630080), 1X GlutaMAX supplement (Thermo Fisher Scientific, cat. 35050061), 0.1 mg/mL primocin (InvivoGen, cat. ant-pm-2), 10% defined fetal bovine serum, heat inactivated (HyClone Laboratories Inc., cat. SH30070.03HI), 50% L-WRN conditioned media (ATCC, cat. CRL-3276), 1.25 mM N-Acetyl-L-cysteine (Sigma-Aldrich, cat. A9165), 10 mM nicotinamide (Sigma-Aldrich, cat. N0636), 1X B-27 supplement (Thermo Fisher Scientific, cat. 17504044), 1X N-2 supplement (Thermo Fisher Scientific, cat. 17502048), 10 microM Y-27632 dihydrochloride (Tocris Bioscience, cat. 1254), and 50 ng/mL human EGF recombinant protein (Thermo Fisher Scientific, cat. PHG0311). The 485176-168-R4-J1-PDC line was cultured in Panc media, which includes all 6C/Colon 1B media components plus 100 ng/mL human FGF-10 (Thermo Fisher Scientific, cat. 100-26), 500 nM SB-431542 (Selleckchem, cat. S1067), and gastrin (Tocris, cat. 3006).
[…]

[1] = second compound 0.0316 µM, first compound 0.0316 µM
[2] = second compound 0.0316 µM, first compound 0.1 µM
[3] = second compound 0.0316 µM, first compound 0.316 µM
[4] = second compound 0.0316 µM, first compound 1 µM
[5] = second compound 0.0316 µM, first compound 3.16 µM
[6] = second compound 0.0316 µM, first compound 10 µM
[7] = second compound 0.1 µM, first compound 0.0316 µM
[8] = second compound 0.1 µM, first compound 0.1 µM
[9] = second compound 0.1 µM, first compound 0.316 µM
[10] = second compound 0.1 µM, first compound 1 µM
[11] = second compound 0.1 µM, first compound 3.16 µM
[12] = second compound 0.1 µM, first compound 10 µM
[13] = second compound 0.316 µM, first compound 0.0316 µM
[14] = second compound 0.316 µM, first compound 0.1 µM
[15] = second compound 0.316 µM, first compound 0.316 µM
[16] = second compound 0.316 µM, first compound 1 µM
[17] = second compound 0.316 µM, first compound 3.16 µM
[18] = second compound 0.316 µM, first compound 10 µM
[19] = second compound 1 µM, first compound 0.0316 µM
[20] = second compound 1 µM, first compound 0.1 µM
[21] = second compound 1 µM, first compound 0.316 µM
[22] = second compound 1 µM, first compound 1 µM
[23] = second compound 1 µM, first compound 3.16 µM
[24] = second compound 1 µM, first compound 10 µM
[25] = second compound 3.16 µM, first compound 0.0316 µM
[26] = second compound 3.16 µM, first compound 0.1 µM
[27] = second compound 3.16 µM, first compound 0.316 µM
[28] = second compound 3.16 µM, first compound 1 µM
[29] = second compound 3.16 µM, first compound 3.16 µM
[30] = second compound 3.16 µM, first compound 10 µM
[31] = second compound 10 µM, first compound 0.0316 µM
[32] = second compound 10 µM, first compound 0.1 µM
[33] = second compound 10 µM, first compound 0.316 µM
[34] = second compound 10 µM, first compound 1 µM
[35] = second compound 10 µM, first compound 3.16 µM
[36] = second compound 10 µM, first compound 10 µM
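Also: spheroids exposed to the agents for seven days before readout.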
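For viability, T/C in this document: percent viability relative to DMSO vehicle control wells = 100%.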

## CC(C)(O)C1CCC(Nc2ccc3ncc(-c4cccc(C(F)(F)F)c4)n3n2)CC1 (centres undefined) + CN(C)c1ccc(Nc2c3ccc(NC(=O)CCN4CCCC4)cc3nc3cc(NC(=O)CCN4CCCC4)ccc23)cc1
Second compound 0.0316 µM
  IC50: > 10 µM
Second compound 0.1 µM
  IC50: > 10 µM
Second compound 0.316 µM
  IC50: > 10 µM
Second compound 1 µM
  IC50: > 10 µM
Second compound 3.16 µM
  IC50: > 10 µM
Second compound 10 µM
  IC50: 2.73 µM
[1]
  viability, T/C: 107%
[2]
  viability, T/C: 117%
[3]
  viability, T/C: 130%
[4]
  viability, T/C: 98.6%
[5]
  viability, T/C: 95.1%
[6]
  viability, T/C: 92.2%
[7]
  viability, T/C: 97.2%
[8]
  viability, T/C: 94.7%
[9]
  viability, T/C: 97.8%
[10]
  viability, T/C: 94.5%
[11]
  viability, T/C: 94%
[12]
  viability, T/C: 121%
[13]
  viability, T/C: 103%
[14]
  viability, T/C: 92%
[15]
  viability, T/C: 101%
[16]
  viability, T/C: 89.5%
[17]
  viability, T/C: 85.1%
[18]
  viability, T/C: 133%
[19]
  viability, T/C: 89.7%
[20]
  viability, T/C: 103%
[21]
  viability, T/C: 88.6%
[22]
  viability, T/C: 107%
[23]
  viability, T/C: 82.8%
[24]
  viability, T/C: 100%
[25]
  viability, T/C: 91.5%
[26]
  viability, T/C: 93.9%
[27]
  viability, T/C: 117%
[28]
  viability, T/C: 112%
[29]
  viability, T/C: 65.5%
[30]
  viability, T/C: 84.2%
[31]
  viability, T/C: 105%
[32]
  viability, T/C: 103%
[33]
  viability, T/C: 103%
[34]
  viability, T/C: 111%
[35]
  viability, T/C: 27.6%
[36]
  viability, T/C: 56.4%

## COc1cc(C2c3cc4c(cc3C(OC3OC5COC(C)OC5C(O)C3O)C3COC(=O)C23)OCO4)cc(OC)c1O (centres undefined) + CN(C)c1ccc(Nc2c3ccc(NC(=O)CCN4CCCC4)cc3nc3cc(NC(=O)CCN4CCCC4)ccc23)cc1
Second compound 0.0316 µM
  IC50: > 10 µM
Second compound 0.1 µM
  IC50: > 10 µM
Second compound 0.316 µM
  IC50: > 10 µM
Second compound 1 µM
  IC50: > 10 µM
Second compound 3.16 µM
  IC50: > 10 µM
Second compound 10 µM
  IC50: > 10 µM
[1]
  viability, T/C: 117%
[2]
  viability, T/C: 102%
[3]
  viability, T/C: 115%
[4]
  viability, T/C: 88.3%
[5]
  viability, T/C: 79.4%
[6]
  viability, T/C: 88.7%
[7]
  viability, T/C: 116%
[8]
  viability, T/C: 105%
[9]
  viability, T/C: 92.1%
[10]
  viability, T/C: 92.6%
[11]
  viability, T/C: 101%
[12]
  viability, T/C: 87.1%
[13]
  viability, T/C: 104%
[14]
  viability, T/C: 107%
[15]
  viability, T/C: 93.6%
[16]
  viability, T/C: 88.2%
[17]
  viability, T/C: 87.2%
[18]
  viability, T/C: 76.8%
[19]
  viability, T/C: 105%
[20]
  viability, T/C: 107%
[21]
  viability, T/C: 123%
[22]
  viability, T/C: 93.5%
[23]
  viability, T/C: 87.2%
[24]
  viability, T/C: 95.2%
[25]
  viability, T/C: 102%
[26]
  viability, T/C: 108%
[27]
  viability, T/C: 118%
[28]
  viability, T/C: 81.2%
[29]
  viability, T/C: 81.3%
[30]
  viability, T/C: 81.3%
[31]
  viability, T/C: 89.2%
[32]
  viability, T/C: 105%
[33]
  viability, T/C: 101%
[34]
  viability, T/C: 107%
[35]
  viability, T/C: 98%
[36]
  viability, T/C: 81.8%

Reference: PubChem BioAssay AID2060513 (Molecular Pharmacology Branch, DTP, NCI, 2025)
